Literature values as cited in US12458625B2, “Methods and compositions for soft anticholinergic esters” (Bodor Laboratories, Inc., priority 2015, dated 2025).

Details: solid oral form

Q: Which results are given for `C[N+]1(C)CCC(OC(=O)C(O)(c2ccccc2)C2CCCC2)C1` (stereo not drawn) [glycopyrrolate]?
A: reducing drooling (children): effective in reducing drooling; dropped out of the study because of adverse effects to the medication (children, most with cerebral palsy): over 20%; children affected by adverse events (most with cerebral palsy): 69%
